# In PubChem BioAssay AID624254 (Broad Institute, 2012):
# Activity calls are given as the source filed them. How the calls were made is not given here.
# Assay: Quorum luxo inducers, light production, v cholerae bh1651 luxod47e, confirmatory dose response (AID 624254)
# Settings: V. cholerae BH1651 luxOD47E, luciferase light induction, 6 h; at 50 µM (top of the series)
row,SMILES,activation (light increase)
1,Cc1cccc(NS(=O)(=O)c2ccc(Oc3ccccc3)cc2)n1,inactive
2,CCc1nc(NCCCN2CCOCC2)c2oc3ccccc3c2n1,inactive
3,Cc1ccccc1OCC(=O)OCC(=O)N1CCCc2ccccc21,inactive
4,Cc1cc(C(C)(C)C)oc1C(=O)OCC(=O)NC1CCCCC1,inactive
5,O=C(OC1CCN(c2ncc(C(F)(F)F)cc2Cl)CC1)c1ccc(Cl)cc1,inactive
6,C[C@H](CO)N1C[C@H](C)[C@@H](CN(C)S(=O)(=O)c2cccs2)Oc2c(NC(=O)C3CC3)cccc2C1=O,inactive
7,CCCNC(=O)Cc1ccsc1,inactive
8,CCOc1ccc(S(=O)(=O)N(CCO)CCO)cc1-c1nc2c(C(C)(C)C)nn(C)c2c(=O)[nH]1,inactive
9,Cc1[nH]c2ccc3c(ncn3CCC#N)c2c1C,inactive
10,O=C(CC1NC(=O)NC1=O)Nc1ccc(Cl)cc1 (centres undefined),inactive
11,CN(CC(=O)Nc1ccccc1Cl)C(=O)c1cccc(-n2cccc2)c1,inactive
12,Cc1cc2c(ncn2C)c(NS(=O)(=O)c2cc(Cl)ccc2Cl)c1C,inactive
13,Cc1cccc(-c2noc(CN(C(=O)C34CC5CC(CC(C5)C3)C4)C(C)C)n2)c1,inactive
14,O=C(NCc1ccccc1)C1CCCN(S(=O)(=O)c2cccnc2)C1 (centres undefined),inactive
15,S=C(c1ccc(N2CCOCC2)cc1)N1CCCCC1,inactive
16,COc1ccc(S(=O)(=O)Nc2ccc(S(=O)(=O)N3CCOCC3)cc2)cc1C,inactive
17,CCCCn1nnnc1NCc1ccc(N(CC)CC)cc1,inactive
18,Cc1cccc(N2CCN(C(=O)C34CC5CC(CC(C5)C3)C4)CC2)c1C,inactive
19,CCCCNC(=O)CN(c1cccc(Br)c1)S(C)(=O)=O,inactive
20,Cc1ccc(S(=O)(=O)N2CCN(C(=O)COC(=O)/C=C/c3ccc(F)cc3)CC2)c(C)c1,inactive
21,O=C(c1cc2ccccc2cc1O)N1CCN(c2ccccc2O)CC1,inactive
22,N#Cc1ccccc1NC(=O)CNc1ccccc1N1CCCCC1,inactive
23,CCC(C)NC(=O)Cc1ccc(-c2ccccc2)cc1 (centres undefined),inactive
24,O=[N+]([O-])c1ccc(NCCN2CCOCC2)c([N+](=O)[O-])c1,inactive
25,Clc1ncnc2scc(-c3ccccc3)c12,inactive

row,SMILES,activation (light increase)
1,c1cn2cc(CN3CCOCC3)nc2s1,inactive
2,O=Cc1cc(OCc2ccccc2)ccc1B(O)O,inactive
3,O=S(=O)(Nc1cccc(S(=O)(=O)N2CCCCC2)c1)c1ccccc1F,inactive
4,Cc1nn2cnnc2c(C)c1Cc1c(F)cccc1Cl,inactive
5,COc1ccc2nc(SC(C)C(=O)NCC(=O)Nc3ccc(F)c(F)c3F)[nH]c2c1 (centres undefined),inactive
6,COc1ccc(OCC(=O)NC2CCCN(Cc3ccc(Cl)cc3)C2)cc1 (centres undefined),inactive
7,CCOC(=O)N1CCN(C(=S)NCCOC)CC1,inactive
8,Cc1ccc(NC(=S)NCCc2c[nH]c3ccccc23)cc1,inactive
9,CCc1sc(N(C(=O)Cc2ccccc2)c2ccc(F)cc2)nc1-c1ccccc1,inactive
10,Cn1cnc(S(=O)(=O)Nc2ccccc2Cl)c1,inactive
11,Cc1ccc(CN2C(=O)CCC2C(=O)NCCN(CC(C)C)CC(C)C)cc1 (centres undefined),inactive
12,Cn1cnc(S(=O)(=O)Nc2ccc(Oc3ccccc3)cc2)c1,inactive
13,O=C(Oc1ccc(=O)n(-c2ccccc2)n1)c1cccc(Cl)c1,inactive
14,CCc1ccc2c(c1)c1nnc(NN)nc1n2CC,inactive
15,CC(OC(=O)Cn1cnc2c1c(=O)n(C)c(=O)n2C)C(=O)c1ccccc1 (centres undefined),inactive
16,Cc1ccc2nc(SCc3nnc(-c4ccccc4Br)o3)[nH]c2c1,inactive
17,COc1cc(C2N(c3ccccn3)C(=O)C3CCCN32)cc(OC)c1OC (centres undefined),inactive
18,C[C@@H]1CN([C@@H](C)CO)C(=O)c2cccc(NC(=O)C3CC3)c2O[C@@H]1CN(C)S(=O)(=O)c1cccs1,inactive
19,Cc1cccc(NC(=O)c2ccc(Oc3ccccc3)cc2)n1,inactive
20,COc1ccccc1N1CCN(CCCOc2ccc(F)cc2)CC1,inactive
21,O=C(NCc1ccccn1)c1c(O)c2c([nH]c1=O)CCCC2,inactive
22,Cc1noc(C)c1NC(=O)Nc1cccc2c1O[C@@H](CN(C)S(=O)(=O)c1cccs1)[C@@H](C)CN([C@H](C)CO)C2=O,inactive
23,CCOC(=O)CC1C(=O)NCCN1C(=O)c1cccc(C(F)(F)F)c1 (centres undefined),inactive
24,O=C(NCCOc1ccc(Cl)cc1)c1ccco1,inactive
25,COc1ccc(S(=O)(=O)N2CCOCC2)cc1NC(=O)CSc1nnc(C2CC2)n1C1CC1,inactive

row,SMILES,activation (light increase)
1,Cc1ccc(C(=O)COc2cc(C)nc3nncn23)cc1,inactive
2,COc1cc(C(N)=O)cc(Br)c1OC,inactive
3,COc1ccc2c(c1OC)C(=O)N(c1nccs1)C2,inactive
4,COc1ccc(CCNC(=O)C(=O)NCC2CCCN2S(=O)(=O)c2ccc(OC)cc2)cc1 (centres undefined),inactive
5,COc1ccccc1NC(=O)COC(=O)c1ccc2c(c1)OCCO2,inactive
6,COc1ccc(Cl)cc1NC(=O)COC(=O)c1cc(C)oc1C,inactive
7,COc1cc(OC)c(OC)cc1CNC(C)C(O)c1ccccc1 (centres undefined),inactive
8,Cn1c(CNc2cccc(Cl)c2)nnc1SCC(=O)OC1CCCCC1,inactive
9,COc1ccc(Cc2nn[nH]n2)cc1,inactive
10,CCN1CCCC1CNC(=O)c1cc(OC)c(OC)c(OC)c1 (centres undefined),inactive
11,Cc1cc(C(=O)OCC(=O)Nc2c(Cl)cccc2C(F)(F)F)c(C)o1,inactive
12,CC(C)CCOc1cccc(OCC(=O)N(C)C2CCS(=O)(=O)C2)c1 (centres undefined),inactive
13,O=C(NCCS(=O)(=O)N1CCN(c2ccccc2)CC1)c1ccco1,inactive
14,C=Cn1c(C(=O)O)ccc1-c1ccccc1,inactive
15,O=C(COC(=O)c1cc(Cl)ccc1Cl)NC1CCCC1,inactive
16,CC(=O)c1ccc(S(=O)(=O)Nc2cccc(-c3ccc4nncn4n3)c2)cc1,inactive
17,CCOc1ccc(S(=O)(=O)Nc2ccc(C(=O)NCC(c3ccco3)N3CCCCC3)cc2)cc1 (centres undefined),inactive
18,COc1ccc(S(=O)(=O)N2CCCCC2)cc1NC(=O)c1ccc(OC)c(OC)c1,inactive
19,FC(F)(F)c1nnc2sc(-c3cccs3)nn12,inactive
20,CCOc1ccc2nc(SCC(=O)NC(=O)NCc3ccco3)[nH]c2c1,inactive
21,CC1CCCN(C(=O)Cn2c(-c3nonc3N)nc3ccccc32)C1 (centres undefined),inactive
22,Cc1cc(C)c(S(=O)(=O)Nc2ccccn2)c(C)c1,inactive
23,CC(C)Oc1ccc(OCCCN2CCCCCC2)cc1,inactive
24,COc1ccc(C(=O)COC(=O)CNC(=O)c2ccc(Cl)cc2Cl)c(OC)c1,inactive
25,Nc1nc(SCc2nc3sc4c(c3c(=O)[nH]2)CCCC4)n[nH]1,inactive

row,SMILES,activation (light increase)
1,COc1c(C)cccc1C(=O)Nc1ccc(OCC(=O)N2CCOCC2)cc1C,inactive
2,CCN(CC)S(=O)(=O)c1cccc(C(=O)OCC(=O)C23CC4CC(CC(C4)C2)C3)c1,inactive
3,Cc1ccc(S(=O)(=O)N(C)C[C@H]2Oc3c(NC(=O)Nc4ccc5c(c4)OCO5)cccc3C(=O)N([C@H](C)CO)C[C@@H]2C)cc1,inactive
4,CCN(CC(=O)Nc1c(F)cccc1F)C(=O)C1CC(=O)N(c2ccccc2OC)C1 (centres undefined),inactive
5,COC(=O)c1cnn(-c2nc(-c3ccccc3)cs2)c1N,inactive
6,C=Cn1c(C(=O)O)ccc1-c1cccs1,inactive
7,Cc1cccc(C(=O)NCC(c2cccs2)N2CCOCC2)c1 (centres undefined),inactive
8,CCc1nnc(NC(=O)C2CC(=O)N(c3ccc(C)cc3)C2)s1 (centres undefined),inactive
9,Cc1noc(C)c1COc1ccc(C(=O)NCC(c2c(F)cccc2Cl)N(C)C)cc1 (centres undefined),inactive
10,COC(=O)Cc1c(C)c2ccc(OC(=O)c3ccccc3)cc2oc1=O,inactive
11,Cc1onc(-c2ccccc2)c1C(=O)Nc1nc2c(s1)CCCC2,inactive
12,Cc1ccc2cc(C(c3nnnn3C3CCCC3)N3CCN(c4ccc(F)cc4)CC3)c(=O)[nH]c2c1 (centres undefined),inactive
13,O=C(Nc1c(F)c(F)c(F)c(F)c1F)C1CCCCC1,inactive
14,COc1ccc2[nH]c(=O)c(CNc3ccc(C)c(C)c3)cc2c1,inactive
15,COC(=O)c1cc(NC(=O)C2CC=CCC2C(=O)O)cc(C(=O)OC)c1 (centres undefined),inactive
16,Cn1c(SCc2cnc(-c3ccccc3)s2)nnc1C1COc2ccccc2O1 (centres undefined),inactive
17,CC1(C(=O)N2CCN(c3ccc([N+](=O)[O-])cc3)CC2)CC1(Cl)Cl (centres undefined),inactive
18,O=C(COC(=O)c1ccc(Cl)nc1)Nc1ccc2ccccc2c1,inactive
19,Cn1cnnc1SCCOc1ccc(Cl)cc1,inactive
20,Cn1cnc(S(=O)(=O)Nc2ccc(OC(C)(C)C)cc2)c1,inactive
21,CCOC(=O)c1cnc(SCC(=O)OCC(=O)NC2CCS(=O)(=O)C2)nc1N (centres undefined),inactive
22,O=C(NCCC(=O)N1CCN(c2ccc(F)cc2)CC1)c1ccco1,inactive
23,Cc1ccc(C(=O)N(C)CC(=O)Nc2ccc(N3CCOCC3)cc2)s1,inactive
24,Cc1cc2oc(=O)cc(CN3CCC(C)CC3)c2cc1Cl,inactive
